Consider 33 molecules from PubChem BioAssay (NCI).

Where “and” joins values, the source holds several entries; their conditions need not be identical. Identical values can stand only once.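 Where inhibition never reached the appropriate level, the endpoint shown equals the highest concentration tested. Otherwise, values were interpolated linearly from a five-concentration, 48-hour dose response in 96-well plates. Here, GI50 denotes the concentration required for 50% inhibition of growth. TGI: total growth inhibition.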 Some results are limits rather than exact numbers.

Common to all, as to experiment: NCI tumour cell line growth inhibition, 48 h
In experiment [1] the test system is DLD-1 colon.
Experiment [2] relates to KM20L2 colon.
Experiment [3] concerns MCF7 breast.
Experiment [4] concerns T-47D breast.
Experiment [5] deals with MDA-N.

In the case of `CC(C)c1cccc(C(C)C)c1NC(=O)C(=O)C1SC(=S)NC1=O` (centres undefined), the TGI in experiment [1] and in experiment [2] was more than 100 µM throughout.
As for `CCCCCCCCCCCCCCCCCc1nnc(N)o1`, the TGI in experiment [1] and in experiment [2] was more than 100 µM each time.
In turn, `O=c1[nH]c2c(c3ccccc13)CCc1ccccc1-2` returned a TGI in experiment [2] of more than 100 µM.
Take `O=C1/C(=C\c2ccccc2)c2ccccc2N1/N=C\c1ccccc1`: the TGI in experiment [1] and in experiment [2] was more than 100 µM each time.
`N#CC(C(=O)CCC(=O)Nc1ccc(Cl)c(Cl)c1)c1ccc(Cl)cc1` (centres undefined): the TGI in experiment [1] and in experiment [2] was more than 100 µM throughout.
Consider `O=c1[nH]nc(-c2ccccc2)c2c(-c3ccccc3)onc12`, for which, in experiment [3], the GI50 is 0.368 µM and the TGI is more than 100 µM. For the same molecule, in experiment [4], the GI50 was 0.595 µM and the TGI is more than 46 µM.
For the molecule `Cc1cccc(N=C2NC(=O)C(CC(=O)Nc3ccccc3Cl)S2)c1` (centres undefined), the TGI in experiment [1] and in experiment [2] was more than 100 µM each time.
Turning to `CCc1c2c(nc3ccc(OCc4ccc(B5OC(C)(C)C(C)(C)O5)cc4)cc13)-c1cc3c(c(=O)n1C2)COC(=O)[C@]3(O)CC`, in experiment [4], the GI50 is less than 0.01 µM and the TGI is more than 100 µM.
In the case of `O=C1NN=CN2C(=O)CCC12` (centres undefined), the TGI in experiment [1] and in experiment [2] was more than 100 µM throughout.
Consider `Nc1nc(Cl)nc2c1ncn2[C@@H]1O[C@H](COS(N)(=O)=O)[C@@H](O)[C@H]1O`, for which the GI50 in experiment [3] is 0.024 µM and 0.0293 µM. Moreover, in experiment [4], the GI50 is 0.0156 µM and 0.02 µM; the TGI was 0.0656 µM and 0.0744 µM.
In the case of `CCCCN(CCCC)CCC(O)c1cc2ccc(C(F)(F)F)cc2c2cc(C(F)(F)F)ccc12` (centres undefined), in experiment [3], the GI50 was 1.62 µM and the TGI came out at 3.74 µM. Moreover, in experiment [4], the GI50 was 3.09 µM and the TGI amounted to 12.9 µM.
For the molecule `O=C1OC(OC/C(Br)=C(/Br)COC2OC(=O)C(Cl)=C2Cl)C(Cl)=C1Cl` (centres undefined), the values for the TGI in experiment [3], in experiment [5] and in experiment [4] were 30.9 µM, 21.5 µM and 30.8 µM, respectively.
`CNC(=O)c1cncc(/C=C/c2c(Cl)cccc2Cl)c1`: in experiment [3], the GI50 was more than 25 µM and the TGI is more than 25 µM. For the same molecule, in experiment [4], the GI50 was more than 18.1 µM and the TGI was more than 25 µM.
Turning to `COC1C(O)C(C)OC(O[C@@H]2C[C@H]3CC[C@@H]4[C@H](CC[C@]5(C)[C@@H](C6=CC(=O)OC6)CC[C@]45O)[C@@]3(C)[C@H](O)C2)C1O` (some centres undefined), the TGI in experiment [5] is 0.0838 µM; in experiment [4] it was 0.817 µM.
Regarding `NS(=O)(=O)c1ccc(N2N=C(c3cccs3)CC2c2ccccc2O)cc1` (centres undefined), in experiment [3], the GI50 is 1.01 µM and the TGI is 4.45 µM. Further, in experiment [4], the GI50 is 2.24 µM and the TGI turned out to be 18.8 µM.
On to `O=C1C=C(OCCCl)C(=O)c2c(O)ccc(O)c21`, for which the GI50 in experiment [3] was 0.399 µM; in experiment [5], 0.236 µM. The TGI in experiment [3] was 0.472 µM and 1.75 µM; in experiment [5], 0.29 µM and 0.539 µM; in experiment [4] it was 4.52 µM.
Take `C=C1C(=O)O[C@H]2[C@H]1CC/C(CNC(=O)/C=C/c1ccc(Cl)cc1Cl)=C\CC[C@@]1(C)O[C@@H]21`: in experiment [4], the GI50 was 1.18 µM and the TGI was 3.45 µM.
In the case of `COc1ccc2c(c1)C=C1CSCC3=Cc4cc(OC)ccc4OC13O2`, the GI50 in experiment [3] was 0.313 µM; in experiment [4] it was 0.418 µM. For the same molecule, the TGI in experiment [3] and in experiment [4] was more than 100 µM each time.
For the molecule `O=C1COCCN1c1ccc(NCc2cn(C(=O)c3ccc(Cl)cc3)c3ccccc23)cc1`, the figures for the GI50 in experiment [3] and in experiment [4] were 0.293 µM and 0.264 µM, respectively. Further, the TGI in experiment [3] is 15 µM; in experiment [4] it was 83.8 µM.
Turning to `NNC(=S)N/N=C(/C(=O)Nc1ccc([N+](=O)[O-])cc1)c1nc2ccc([N+](=O)[O-])cc2[nH]c1=O`, the TGI in experiment [1] was more than 100 µM.
As to `C=C(C)C(=O)O[C@H]1CC2=CC(CC(C)=C[C@H]3OC(=O)C(=C)C13)OC2=O` (some centres undefined), the TGI in experiment [3] came to 49.1 µM; in experiment [5], 89.4 µM; in experiment [4], 36.9 µM.
For `O=C1c2ccn(CCCCN(CCO)CCO)c2C(=O)c2c1c(O)c1ccccc1c2O`, the figures for the GI50 in experiment [3] and in experiment [4] were 6.12 µM and 22.9 µM, respectively. Further, the TGI in experiment [3] was more than 58.1 µM; in experiment [4], more than 69.6 µM.
As to `CN(CCCN(C)CCC1CCCCC1)CCC1CCCCC1`, in experiment [3], the GI50 was 1.62 µM and the TGI is 3.28 µM. Also, in experiment [4], the GI50 is 1.64 µM and the TGI came out at 4.15 µM.
On to `Clc1ccc(/C=C/c2nc(Cl)c(-c3ccc(Cl)cc3)c(Cl)n2)cc1`, for which the TGI in experiment [3], in experiment [5] and in experiment [4] was more than 100 µM throughout.
In experiment [2], `O=c1cc(-c2ccc(O)cc2)oc2cc(O)cc(O)c12` returned a TGI of 88.2 µM.
Consider `Cc1c(C(N)=O)sc2c1c(=O)n(Cc1ccccc1)c1nnc(S(=O)(=O)CC(=O)Nc3ccc(Cl)cc3)n21`, for which, in experiment [3], the GI50 is 4.76 µM and the TGI was 70.2 µM. In experiment [4], the GI50 is 3.89 µM and the TGI stood at 14.3 µM.
With `COC(=O)C1=C(c2ccc(Cl)cc2)C(O)N=C(NN)N1` (centres undefined), the TGI in experiment [1] was more than 100 µM.
Regarding `CN(C)c1ncnc2c1ccn2C1OC(CO)C(O)C1O` (centres undefined), the GI50 was 0.115 µM in experiment [3] and 0.0621 µM in experiment [4]. Moreover, the figures for the TGI in experiment [3] and in experiment [4] were 7.32 µM and 1.61 µM, respectively.
The like results for `COC(=O)Nc1nc2ccc(S(=O)(=O)c3ccc(NC(=O)Nc4cc(C(F)(F)F)ccc4F)cc3)cc2[nH]1` were, in that order, more than 25 µM, more than 25 µM, more than 25 µM and more than 25 µM.
In the case of `CN(C)CC1=Nc2cccc3cccc(c23)N1`, the values for the TGI in experiment [3], in experiment [5] and in experiment [4] were 30.8 µM, 35 µM and 24.6 µM, respectively.
`CC1CC(=O)c2c(ccc3c2C(=O)c2cccc(O)c2C3=O)C1` (centres undefined): the TGI in experiment [1] stood at 9.56 µM.
With `CC(C)=CCc1cc(C2COc3cc4c(c(O)c3C2=O)C=CC(C)(C)O4)c(O)cc1O` (centres undefined), the TGI in experiment [3] worked out at 33.5 µM; in experiment [5], 27.5 µM; in experiment [4] it was 27.2 µM.
Take `O=[N+]([O-])c1cc2c(ccc3occc32)o1`: in experiment [3], the GI50 is 0.701 µM and the TGI turned out to be 21.2 µM. Further, in experiment [4], the GI50 was 41.3 µM and the TGI was more than 100 µM.
